The test system of one test is RIPK1. The test is described as follows: ELISA of RIPK1 released in supernatant of L929 cells exposed to TNFα. The conditions noted are these: 20 μM, 2 h, then TNFα (25 ng/mL) 6 h. Type of test: cell-based, murine. As to the method:
FIG. 12. […] Results are shown as mean±SEM of six replicates.
L929 cells (LGC Standards, Molsheim, France), were cultured in Dulbecco's modified Eagle's medium (DMEM) (ThermoFisher, Massachusetts, USA) supplemented with 10% fetal bovine serum (Eurobio, Courtaboeuf, France), penicillin (100 IU/ml), streptomycin (0.1 mg/ml), and L-glutamine (0.03%) (ThermoFisher). […] AML-12 (alpha mouse liver-12) hepatocytes (LGC Standards) were cultured in DMEM/F12 Medium (ThermoFisher) supplemented with 10% fetal bovine serum (Eurobio), 10 μg/ml insulin, 5.5 μg/ml transferrin, 5 ng/ml selenium and 40 ng/ml dexamethasone (Sigma, Missouri, USA). AML-12 hepatocytes were stimulated with insulin (#I0516, 10 nM; Sigma) for 15 minutes.
Protein concentrations of human RIPK1 (SEE640Hu; Could-Clone Corp., Texas, USA), human MLKL (SER645Hu; Could-Clone Corp.) and murine RIPK1 (CSB-EL019735MO; Cusabio, Texas, USA) were determined by an ELISA kit according to the manufacturer's instructions.
In general terms: In an ELISA, binding on a coated surface is turned into a signal by an enzyme label.

The subject of test [1] is primary human hepatocytes. The test is described as follows: Fat depletion in primary human hepatocytes with free fatty acid-induced steatosis. The test is classed as cell-based. To be noted: 20 μM, 24 h. As to the method:
FIG. 7. RIPA-56 treatment induces fat depletion in primary human hepatocytes. Primary human hepatocytes were isolated from steatotic human livers of patients with NAFLD (n=5) (A-C) or from non-steatotic human livers and incubated with free fatty acids to induce steatosis or without (W/O) (n=5) (D-G), and treated with RIPA-56 (20 μM) or DMSO (vehicle) for 24 h. (A, D) Representative Oil Red-O and DAPI images; (B, E) Quantification of Oil Red-O staining normalized for the number of DAPI-stained nuclei; (C, F) Quantification of intracellular triglycerides normalized to protein content; (G) mRNA levels of CPT1A, MTTP and APOB100 were assessed by RT-qPCR, and shown relative to DMSO-treated hepatocytes. Results are shown as mean±SEM; n.s., not significant; *p<0.05; **p<0.01; scale bars, 100 μm. These findings are representative of five independent cell preparations.
FIG. 9. MLKL controls intrahepatic triglyceride content in hepatocytes. (A-D) Primary human hepatocytes were isolated from non-steatotic human livers and incubated with free fatty acids to induce steatosis, or without (W/O), and treated with necrosulfonamide (NSA) (20 μM) or DMSO (vehicle) for 24 h. (A) Representative Oil Red-O and DAPI images; (B) Quantification of Oil Red-O staining normalized for the number of DAPI-stained nuclei; (C) Quantification of intracellular triglycerides normalized to protein content. (D) mRNA levels of CPT1A, MTTP and APOB100 were assessed by RT-qPCR and shown relative to DMSO-treated hepatocytes; (E-H) AML-12 cells were knocked-out (KO) for MLKL and compared with control (CTL) cells, which underwent a similar CRISPR-Cas9 selection as KO cells; (E) Whole-cell lysates were extracted from CTL and MLKL-KO AML-12 cells and analyzed by Western blot using antibodies against MLKL, Tubulin and GAPDH; (F) Representative Oil Red-O and DAPI images; (G) Oil Red-O staining and (H) triglycerides quantification in fat-loaded cell lines. Results are shown as mean±SEM; n.s., not significant; *p<0.05; **p<0.01; ***p<0.001; scale bars, 100 μm. These experiments are representative of five independent cell preparations.
The liver fragment was initially perfused with a prewarmed (37° C.) calcium-free buffer supplemented with 5 mmol/L ethylene glycol tetra-acetic acid (Sigma) followed by perfusion with a prewarmed (37° C.) buffer containing 6 mmol/L calcium (CaCl2) and collagenase 0.05% ([…]) (Sigma). The liver fragment was then gently shaken to disperse liver cells in Hepatocyte Wash Medium (Life Technologies, Villebon-sur-Yvette, France). The resulting cell suspension was filtered through a gauze-lined funnel. Cells were then centrifuged at low speed. The supernatant, containing damaged or dead hepatocytes, non-parenchymal cells and debris were removed and pelleted hepatocytes were re-suspended in Hepatocyte Wash Medium. The count of viable cells was determined using trypan blue exclusion. Freshly isolated normal (steatosis <5%) or steatotic (>10%) hepatocytes were resuspended in Williams medium E (Life technologies) containing 10% fetal calf serum (Eurobio), penicillin (200 U/mL)-streptomycin (200 μg/mL), Fungizone (2.5 μg/mL) and insulin (0.1 U/mL) (Life Technologies). The cells were seeded in 12-, 24- and 96-well plates pre-coated with type I collagen at a density of 0.78×10^6, 0.4×10^6 and 0.5×10^5 viable cells/well, respectively, and incubated overnight at 37° C. in a 5% CO2 atmosphere. The medium was replaced with fresh complete hepatocyte medium supplemented with 1 μmol/L hydrocortisone hemisuccinate (Laboratoires SERB, Paris, France) and hepatocytes were maintained in this medium. To induce steatosis in normal hepatocytes, PHH were incubated with free fatty acid (FFA) mixtures of oleic acid and palmitic acid in a molar ratio 2:1 (500:250 μmol/L), respectively, and with 1% fatty-acid-free BSA for 48 hours.
Total RNA was purified from liver tissue using TRIzol reagent (ThermoFisher) and a RNeasy Mini kit (Qiagen, Courtaboeuf, France). […]

Residues, ends and D or L forms follow the SMILES beside them. *: point of attachment. Cbz = O=C(OCc1ccccc1)*; CH2F = FC*

Consider `COC(=O)C[C@H](NC(=O)[C@H](C)NC(=O)[C@@H](NC(=O)OCc1ccccc1)C(C)C)C(=O)CF` [Zvad] (Cbz-Val-Ala-Asp(OMe)-CH2F), for which the “RIPK1 in the supernatant” value in the test on RIPK1 is reported as “released”.
For the molecule necrostatin-1 [Nec-1], in the test with RIPK1, the “RIPK1 in the supernatant” value was “undetectable”.
Take `COc1nccnc1NS(=O)(=O)c1ccc(NC(=O)/C=C/c2ccc([N+](=O)[O-])s2)cc1` [necrosulfonamide, reference compound]: in test [1] (FFA-induced steatosis), the “intracellular lipid droplets (Oil Red-O)” value was “significantly decreased” and the intracellular triglyceride content entry is “significantly decreased”. Moreover, the “CPT1A expression (mRNA)” value in test [1] (RT-qPCR) is “upregulated”.

For the origin of these results see patent US12653796B2, “Compounds for use (in particular RIPA-56) in the prevention and/or treatment of non-alcoholic fatty liver disease” (SORBONNE UNIVERSITE, priority 2019, dated 2026).
